Measurements as given in the supplement of paper PMC8372320.

Assay: photocatalytic hydrogen evolution rate (per 5 mg catalyst); higher = more photocatalytic H2 evolution; extreme values may be limits of the assay
Settings: catalyst mass (mg): 5; Pt cocatalyst (wt%): 3; sacrificial medium: triethylamine/methanol/water 1:1:1
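Note: aromatic molecules in triethylamine/methanol/water with Pt photoreduced in situ, irradiated 3 h under a 1 sun AM 1.5G solar simulator (350–1000 nm), H2 quantified by headspace gas chromatography; listed molecule itself used as the photocatalyst at 5 mg per vial.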

| photocatalytic hydrogen evolution rate [µmol/h] | SMILES |
| --- | --- |
| 0 | Brc1ccc(Br)c2ccccc12 |
| 0.00401 | Oc1ccc(-c2ccc(O)cc2)cc1 |
| 0.0555 | CCCc1ccc(C(=O)CC#N)cc1 |
| 0.0941 | O=C1OC(=O)c2ccc3c4c(ccc1c24)C(=O)OC3=O |
| 0 | N#Cc1cc(F)cc(F)c1 |
| 0 | N#Cc1cc(Br)cs1 |
| 0.177 | O=Cc1c(F)c(F)c(C=O)c(F)c1F |
| 0 | c1csc(-c2ccc(N(c3ccc(-c4cccs4)cc3)c3ccc(-c4cccs4)cc3)cc2)c1 |
| 0 | c1ccc(N=C(Nc2ccccc2)Nc2ccccc2)cc1 |
| 0 | Cc1cc(N)ccc1C#N |
| 0.229 | CC(=O)c1ccc(N)cc1 |
| 0 | N#Cc1ccc(Br)cc1 |
| 3.44 | Cc1ccc(C(=O)c2ccccc2)cc1 |
| 0 | Brc1ccc2c(c1)oc1cc(Br)ccc12 |
| 0 | N#CCc1ccccc1-c1ccccc1CC#N |
| 0.00783 | O=Cc1ccc(O)cc1 |
| 0.0661 | O=Cc1ccc(O)c(Cl)c1 |
| 3.33 | O=c1c2ccccc2n(-c2ccccc2)c2ccccc12 |
| 0 | CC(C)c1cc(C(C)C)c(-c2ccccc2P(C(C)(C)C)C(C)(C)C)c(C(C)C)c1 |
| 0.0435 | CC(C)(C)c1ccc(C(=O)CC#N)cc1 |

| photocatalytic hydrogen evolution rate [µmol/h] | SMILES |
| --- | --- |
| 0 | Nc1ccc(-c2nnc(-c3ccc(N)cc3)nn2)cc1 |
| 1.25 | CCn1c2ccc(Br)cc2c2cc(Br)ccc21 |
| 0 | c1ccc(Nc2cc(Nc3ccccc3)cc(Nc3ccccc3)c2)cc1 |
| 0 | Nc1ccc(-c2c3nc(c(-c4ccc(N)cc4)c4ccc([nH]4)c(-c4ccc(N)cc4)c4nc(c(-c5ccc(N)cc5)c5ccc2[nH]5)C=C4)C=C3)cc1 |
| 0.167 | O=Cc1sc(C=O)c(Br)c1Br |
| 0 | N#Cc1cc(Br)ccn1 |
| 0.729 | Brc1ccc(N(c2ccccc2)c2ccc(Br)cc2)cc1 |
| 0.245 | Cc1cccc(N(c2ccc(C=O)cc2)c2cccc(C)c2)c1 |
| 0 | O=C(O)c1ccc2cc(C(=O)O)ccc2c1 |
| 0.00675 | Brc1ncc(Br)n2ccnc12 |
| 0 | N#Cc1cc(F)cc(C#N)c1 |
| 0.331 | Cc1cc(C)c(Nc2ccc(Nc3c(C)cc(C)cc3C)c3c2C(=O)c2ccccc2C3=O)c(C)c1 |
| 0 | N#Cc1c(O)ccc(O)c1C#N |
| 3.67 | CC(=O)c1ccc(-c2ccc(C(C)=O)cc2)cc1 |
| 2.41 | O=C(c1ccccc1)c1ccncc1 |
| 0 | Brc1ccc(-c2ccc(Br)cc2)cc1 |
| 0 | CC(C)(C)c1ccc(Nc2ccc(Nc3ccc(C(C)(C)C)cc3)c3c2C(=O)c2c(O)ccc(O)c2C3=O)cc1 |
| 0 | O=C1C(=O)c2cc(Br)ccc2-c2ccc(Br)cc21 |
| 0.139 | N#Cc1ccc(C=O)nc1 |
| 0 | O=C(O)Cc1ccc(Br)cc1Br |

| SMILES | photocatalytic hydrogen evolution rate [µmol/h] |
| --- | --- |
| N#Cc1ccc(O)cc1 | 0 |
| N#CCc1ccc(CC#N)cc1 | 0 |
